For 48 compounds, IC50 results are on record in patent US20230159546A1, “NOVEL SPIROPYRROLIDINE DERIVED ANTIVIRAL AGENTS” (Enanta Pharmaceuticals, Inc., priority 2021, published 2023).

One experiment addresses SARS-CoV-2 3CL-protease (Severe acute respiratory syndrome coronavirus 2, UniProt P0DTD1). The experiment can be described thus: SARS-CoV-2 3C-like (3CL) protease fluorescence assay (FRET). The class given is biochemical.
Conditions: not given
As to `N#C[C@@H]1C[C@@]2(CN1C(=O)Oc1ccccc1)C(=O)Nc1ccccc12` [Example 71], the IC50 is more than 1 µM. `CCOC(=O)N1C[C@]2(C[C@H]1C#N)C(=O)Nc1ccccc12` [Example 67] showed an IC50 of more than 1 µM.

The experiment is the same for the next values; noted with them: recombinant SARS-CoV-2 3CL-protease 10 nM, 30 min preincubation at RT, duplicate; read-out: FRET IC50.
Regarding `N#C[C@@H]1C[C@@]2(CN1C(=O)C(=O)NCc1nccs1)C(=O)Nc1ccccc12` [Example 81], the IC50 is more than 1 µM. Take `N#C[C@@H]1C[C@@]2(CN1C(=O)C(=O)OCc1ccccc1)C(=O)Nc1ccccc12` [Example 126]: the IC50 was more than 1 µM.

`N#C[C@@H]1C[C@@]2(CN1C(=O)[C@H](Cc1ccccc1)C(=O)Nc1ccccc1)C(=O)Nc1ccccc12` [Example 120]: the IC50 fell in the range of 0.1 to 1 µM. As to `N#C[C@@H]1C[C@@]2(CN1C(=O)OC1CC1)C(=O)Nc1ccccc12` [Example 69], the IC50 is more than 1 µM. Take `CC(C)(C)OC(=O)N[C@H]1CCC[C@@H]1NC(=O)C(=O)N1C[C@]2(C[C@H]1C#N)C(=O)Nc1ccccc12` [Example 153]: the half-inhibitory concentration (IC50) was more than 1 µM. Turning to `N#C[C@@H]1C[C@@]2(CN1S(=O)(=O)C1CCCCC1)C(=O)Nc1ccccc12` [Example 129], the IC50 is more than 1 µM. With `N#C[C@@H]1C[C@@]2(CN1C(=O)[C@@H](Cc1ccccc1)C(=O)Nc1ccccc1)C(=O)Nc1ccccc12` [Example 121], the IC50 is more than 1 µM.

As for `N#C[C@@H]1C[C@@]2(CN1S(=O)(=O)Nc1ccc3cccnc3c1)C(=O)Nc1ccccc12` [Example 76], the IC50 was more than 1 µM.

For the compound `N#C[C@@H]1C[C@@]2(CN1C(=O)[C@@H](Cc1ccccc1)C(=O)NC1CC1)C(=O)Nc1ccccc12` [Example 117], the IC50 was more than 1 µM. `Cc1cccc(C)c1NC(CC(=O)N(C)[C@@H](CC(C)C)C(=O)N1C[C@]2(C[C@H]1C#N)C(=O)Nc1ccccc12)C(F)(F)F` (stereo partly drawn) [Example 198]: the IC50 is less than 0.1 µM. Regarding `CC(C)NC(=O)[C@@H](Cc1ccccc1)C(=O)N1C[C@]2(C[C@H]1C#N)C(=O)Nc1ccccc12` [Example 114], the IC50 is 0.1 to 1 µM.

Consider `CC1(C)CCC(NC(=O)C(=O)N2C[C@]3(C[C@H]2C#N)C(=O)Nc2ccccc23)CC1` [Example 143], for which the IC50 was more than 1 µM. For the compound `N#C[C@@H]1C[C@@]2(CN1NC(=O)C1CCCCC1)C(=O)Nc1ccccc12` [Example 141], the IC50 is more than 1 µM. As for `CC(C)NC(=O)[C@H](Cc1ccccc1)C(=O)N1C[C@]2(C[C@H]1C#N)C(=O)Nc1ccccc12` [Example 115], the IC50 is more than 1 µM. The same measure, in the same setting: with `CC(C)(C)OC(=O)N[C@@H]1CCC[C@@H]1NC(=O)C(=O)N1C[C@]2(C[C@H]1C#N)C(=O)Nc1ccccc12` [Example 147] the figure was 0.1 to 1 µM; with `N#C[C@@H]1C[C@@]2(CN1C(=O)OCc1ccccc1)C(=O)Nc1ccccc12` [Example 72], 0.1 to 1 µM; with `N#C[C@@H]1C[C@@]2(CN1C(=O)OCn1cccn1)C(=O)Nc1ccccc12` [Example 87], more than 1 µM. In the case of `N#C[C@@H]1C[C@@]2(CN1C(=O)C(=O)Nc1cc(C(F)(F)F)ccn1)C(=O)Nc1ccccc12` [Example 161], the IC50 is more than 1 µM.

In the case of `CC(C)OC(=O)C(=O)N1C[C@]2(C[C@H]1C#N)C(=O)Nc1ccccc12` [Example 124], the IC50 is more than 1 µM.

On to `N#C[C@@H]1C[C@@]2(CN1C(=O)C(Cc1ccccc1)C(=O)C1CCCCC1)C(=O)Nc1ccccc12` (stereo partly drawn) [Example 93], for which the IC50 is more than 1 µM.

For the compound `CC(C)(C)OC(=O)N[C@H]1CC[C@@H](NC(=O)C(=O)N2C[C@]3(C[C@H]2C#N)C(=O)Nc2ccccc23)CC1` [Example 150], the IC50 was more than 1 µM. Consider `N#C[C@@H]1C[C@@]2(CN1C(=O)C(=O)Nc1cccnc1C(F)(F)F)C(=O)Nc1ccccc12` [Example 165], for which the IC50 is more than 1 µM. Turning to `N#C[C@@H]1C[C@@]2(CN1S(=O)(=O)NC1CCCC1)C(=O)Nc1ccccc12` [Example 60], the IC50 was more than 1 µM. Take `N#C[C@@H]1C[C@@]2(CN1C(=O)C(=O)OC1CC1)C(=O)Nc1ccccc12` [Example 125]: the IC50 was more than 1 µM.

Take `N#C[C@@H]1C[C@@]2(CN1C(=O)[C@H](Cc1ccccc1)C(=O)c1ccccc1)C(=O)Nc1ccccc12` [Example 94]: the IC50 was more than 1 µM.

For `CC(C)(C(=O)C1CCCCC1)C(=O)N1C[C@]2(C[C@H]1C#N)C(=O)Nc1ccccc12` [Example 101], the IC50 was more than 1 µM. Turning to `CC(C)(C(=O)NC1CCCCC1)C(=O)N1C[C@]2(C[C@H]1C#N)C(=O)Nc1ccccc12` [Example 74], the IC50 was more than 1 µM. Same read-out and setting: for `N#C[C@@H]1C[C@@]2(CN1C(=O)C(=O)NCCC1CCCCC1)C(=O)Nc1ccccc12` [Example 155] the value was 0.1 to 1 µM; for `CC(C)(C)OC(=O)N[C@H]1CC[C@@H](NC(=O)C(=O)N2C[C@]3(C[C@H]2C#N)C(=O)Nc2ccccc23)C1` [Example 152], more than 1 µM; for `N#C[C@@H]1C[C@@]2(CN1C(=O)C(=O)OCc1nccs1)C(=O)Nc1ccccc12` [Example 127], more than 1 µM. Consider `N#C[C@@H]1C[C@@]2(CN1C(=O)C(=O)NCc1cc(F)c(F)cc1F)C(=O)Nc1ccccc12` [Example 186], for which the half-maximal inhibitory concentration (IC50) was more than 1 µM.

As to `N#C[C@@H]1C[C@@]2(CN1C(=O)C(=O)NCCCc1ccccc1)C(=O)Nc1ccccc12` [Example 160], the IC50 lay within 0.1 to 1 µM. As for `N#C[C@@H]1C[C@@]2(CN1C(=O)CC(=O)N[C@H]1CC[C@@H](O)C1)C(=O)Nc1ccccc12` [Example 182], the IC50 was more than 1 µM. Same read-out and setting: for `CC(C)OC(=O)N1C[C@]2(C[C@H]1C#N)C(=O)Nc1ccccc12` [Example 68] the value was more than 1 µM; for `N#C[C@@H]1C[C@@]2(CN1C(=O)C(=O)NCC13CC4CC(CC(C4)C1)C3)C(=O)Nc1ccccc12` [Example 158], less than 0.1 µM; for `CC(C)CN1C[C@]2(C[C@@H]1C#N)C(=O)Nc1ccccc12` [Example 65], more than 1 µM. Same read-out and setting: for `N#C[C@@H]1C[C@@]2(CN1C(=O)C(=O)Nc1cccc(C(F)(F)F)n1)C(=O)Nc1ccccc12` [Example 166] the value was more than 1 µM; for `CC1(NC(=O)C(=O)N2C[C@]3(C[C@H]2C#N)C(=O)Nc2ccccc23)CCCC1` [Example 179], 0.1 to 1 µM. The same measure, in the same setting: with `CC(C)(C(=O)C1CC1)C(=O)N1C[C@]2(C[C@H]1C#N)C(=O)Nc1ccccc12` [Example 100] the figure was more than 1 µM; with `N#C[C@@H]1C[C@@]2(CN1C(=O)C(=O)N[C@H]1CC[C@@H](NC(=O)OCc3ccccc3)CC1)C(=O)Nc1ccccc12` [Example 145], more than 1 µM; with `N#C[C@@H]1C[C@@]2(CN1C(=O)[C@@H](Cc1ccccc1)C(=O)NC1CCCCC1)C(=O)Nc1ccccc12` [Example 119], more than 1 µM. For `CC(C)(C(=O)Nc1ccccc1)C(=O)N1C[C@]2(C[C@H]1C#N)C(=O)Nc1ccccc12` [Example 84], the IC50 was more than 1 µM. Consider `CC(C)S(=O)(=O)N1C[C@]2(C[C@H]1C#N)C(=O)Nc1ccccc12` [Example 122], for which the IC50 was more than 1 µM. For the compound `N#C[C@@H]1C[C@@]2(CN1C(=O)CC(=O)N[C@H]1CC[C@H](O)C1)C(=O)Nc1ccccc12` [Example 180], the IC50 was more than 1 µM. Consider `N#C[C@@H]1C[C@@]2(CN1C(=O)CC(=O)N[C@H]1CCC[C@H]1O)C(=O)Nc1ccccc12` [Example 173], for which the IC50 is more than 1 µM.

Turning to `N#C[C@@H]1C[C@@]2(CN1C(=O)C(=O)Nc1ccnc(C(F)(F)F)c1)C(=O)Nc1ccccc12` [Example 167], the IC50 was more than 1 µM.
